Source: US8399681B2, “Substituted aminothiazolone indazoles as estrogen related receptor-alpha modulators” (Janssen Pharmaceutica NV, priority 2009, dated 2013)

Target: T1, ERR1 (also known as ERR-α or ERR-1) (Homo sapiens, UniProt P11474)
T1 sequence (P11474 193-421 limits assumed): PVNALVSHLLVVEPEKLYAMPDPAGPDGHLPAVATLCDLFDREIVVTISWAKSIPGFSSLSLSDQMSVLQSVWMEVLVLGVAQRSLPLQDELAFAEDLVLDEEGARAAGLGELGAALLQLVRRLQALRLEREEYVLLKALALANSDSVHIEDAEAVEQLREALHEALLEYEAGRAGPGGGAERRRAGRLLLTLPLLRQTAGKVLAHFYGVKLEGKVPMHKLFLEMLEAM
Assay: TR-FRET assay (disruption of co-activator peptide binding)
Format: biochemical
Conditions: 6His-tagged ERR1 LBD, GST-hSRC2 co-activator polypeptide; average of 3 independent experiments
How it was run: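 Compound-induced loss of co-activator recruitment, read by time-resolved FRET (excitation 340 nm; 615 and 665 nm emission) after 4-18 h at 25 °C. Reagents: 6 nM ERR1LBD, 6 nM GST-SRC-2, 30 nM Eu cryptate, 7.5 nM XL665, pH 8 Tris buffer. Values: hyperbolic fits averaged over 3 independent runs.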

SMILES | EC50
COC[C@@H]1CN(C2=NC(=O)/C(=C/c3ccc4c(cnn4Cc4ccc(Cl)cc4C(F)(F)F)c3)S2)CCO1 [Example 235, 5-({1-[4-Chloro-2-(trifluoromethyl)benzyl]-1H-indazol-5-yl}methylidene)-2-[2-(S)-(methoxymethyl)morpholin-4-yl]-1,3-thiazol-4(5H)-one] | 5 nM
O=C1N=C(N2CCSCC2)S/C1=C\c1ccc2c(cnn2Cc2ccc(Cl)cc2C(F)(F)F)c1 [Example 148, 5-[1-(4-Chloro-2-trifluoromethyl-benzyl)-1H-indazol-5-ylmethylene]-2-thiomorpholin-4-yl-thiazol-4-one] | 33 nM
O=C1N=C(N2CCC[C@H]2C(=O)O)S/C1=C\c1ccc2c(cnn2Cc2ccc(Cl)cc2C(F)(F)F)c1 [Example 44, 1-{5-[1-(4-Chloro-2-trifluoromethyl-benzyl)-1H-indazol-5-ylmethylene]-4-oxo-4,5-dihydro-thiazol-2-yl}-pyrrolidine-2-(S)-carboxylic acid] | 3.2 nM
CC(C)N[C@@H]1C[C@H](CO)N(C2=NC(=O)/C(=C/c3ccc4c(cnn4Cc4ccc(Cl)cc4C(F)(F)F)c3)S2)C1 [Example 263] | 42 nM
COCC(=O)N1CCN(C2=NC(=O)/C(=C/c3ccc4c(cnn4Cc4ccc(Cl)cc4C(F)(F)F)c3)S2)CC1 [Example 91, 5-[1-(4-Chloro-2-trifluoromethyl-benzyl)-1H-indazol-5-ylmethylene]-2-[4-(2-methoxy-acetyl)-piperazin-1-yl]-thiazol-4-one] | 8.7 nM
O=C1N=C(N2CCN(CCO)CC2)S/C1=C\c1ccc2c(cnn2Cc2ccc(C3CC3)cc2C(F)(F)F)c1 [Example 31, 5-[1-(4-Cyclopropyl-2-trifluoromethyl-benzyl)-1H-indazol-5-ylmethylene]-2-[4-(2-hydroxy-ethyl)-piperazin-1-yl]-thiazol-4-one] | 4.6 nM
C[C@@H]1CN(C2=NC(=O)/C(=C/c3ccc4c(cnn4Cc4ccc(Cl)cc4C(F)(F)F)c3)S2)C[C@H](C)N1 [Example 241, 5-({1-[4-Chloro-2-(trifluoromethyl)benzyl]-1H-indazol-5-yl}methylidene)-2-((3R,5S)-3,5-dimethylpiperazin-1-yl)-1,3-thiazol-4(5H)-one] | 4 nM
CN1CCN(C2=NC(=O)/C(=C/c3ccc4c(cnn4Cc4ccc(C#N)cc4C(F)(F)F)c3)S2)CC1 [Compound 10, 4-{5-[2-(4-Methyl-piperazin-1-yl)-4-oxo-4H-thiazol-5-ylidenemethyl]-indazol-1-ylmethyl}-3-trifluoromethyl-benzonitrile] | 199 nM
O=C1N=C(N2CCNC[C@@H]2CO)S/C1=C\c1ccc2c(cnn2Cc2ccc(Cl)cc2C(F)(F)F)c1 [Example 105, 5-[1-(4-Chloro-2-trifluoromethyl-benzyl)-1H-indazol-5-ylmethylene]-2-(2-hydroxymethyl-piperazin-1-yl)-thiazol-4-one] | 40.9 nM
N#Cc1nn(Cc2ccc(C(F)(F)F)cc2C(F)(F)F)c2ccc(/C=C3\SC(N4CCN[C@@H](CO)C4)=NC3=O)cc12 [Example 217, 1-[2,4-Bis(trifluoromethyl)benzyl]-5-({2-[3-(R)-(hydroxymethyl)piperazin-1-yl]-4-oxo-1,3-thiazol-5(4H)-ylidene}methyl)-1H-indazole-3-carbonitrile] | 27 nM
O=C1N=C(N2CCC(C(=O)O)CC2)S/C1=C\c1ccc2c(c1)c(I)nn2Cc1ccc(C(F)(F)F)cc1C(F)(F)F [Example 191, 1-[5-({1-[2,4-Bis(trifluoromethyl)benzyl]-3-iodo-1H-indazol-5-yl}methylidene)-4-oxo-4,5-dihydro-1,3-thiazol-2-yl]piperidine-4-carboxylic acid] | 3.6 nM
CN1CCN(C2=NC(=O)/C(=C/c3ccc4c(cnn4Cc4ccc(C(F)(F)F)cc4C(F)(F)F)c3)S2)CC1CCO (stereo not drawn) [Example 168, 5-[1-(2,4-Bis-trifluoromethyl-benzyl)-1H-indazol-5-ylmethylene]-2-[3-(2-hydroxy-ethyl)-4-methyl-piperazin-1-yl]-thiazol-4-one] | 9 nM
COC(=O)N1CCN(C2=NC(=O)/C(=C/c3ccc4c(cnn4Cc4ccc(C(F)(F)F)cc4C(F)(F)F)c3)S2)C[C@@H]1CO [Example 216, Methyl 4-[5-({1-[2,4-bis(trifluoromethyl)benzyl]-1H-indazol-5-yl}methylidene)-4-oxo-4,5-dihydro-1,3-thiazol-2-yl]-2-(R)-(hydroxymethyl)piperazine-1-carboxylate] | 15 nM
O=C1N=C(N2CCC(O)(C(=O)O)CC2)S/C1=C\c1ccc2c(cnn2Cc2ccc(C(F)(F)F)cc2C(F)(F)F)c1 [Example 269, 1-[5-({1-[2,4-Bis(trifluoromethyl)benzyl]-1H-indazol-5-yl}methylidene)-4-oxo-4,5-dihydro-1,3-thiazol-2-yl]-4-hydroxypiperidine-4-carboxylic acid] | 15 nM
CN[C@H]1CCN(C2=NC(=O)/C(=C/c3ccc4c(cnn4Cc4ccc(Cl)cc4C(F)(F)F)c3)S2)C1 (stereo in doubt) [Example 115, 5-[1-(4-Chloro-2-trifluoromethyl-benzyl)-1H-indazol-5-ylmethylene]-2-(3-methylamino-pyrrolidin-1-yl)-thiazol-4-one] | 8.4 nM
CC1C(=O)N(C)CCN1C1=NC(=O)/C(=C/c2ccc3c(cnn3Cc3ccc(C(F)(F)F)cc3C(F)(F)F)c2)S1 (stereo not drawn) [Example 170, 4-{5-[1-(2,4-Bis-trifluoromethyl-benzyl)-1H-indazol-5-ylmethylene]-4-oxo-4,5-dihydro-thiazol-2-yl}-1,3-dimethyl-piperazin-2-one] | 30 nM
COCCN1CCN(C2=NC(=O)/C(=C/c3ccc4c(cnn4Cc4ccc(C(F)(F)F)cc4C(F)(F)F)c3)S2)CC1 [Example 66, 5-[1-(2,4-Bis-trifluoromethyl-benzyl)-1H-indazol-5-ylmethylene]-2-[4-(2-methoxy-ethyl)-piperazin-1-yl]-thiazol-4-one] | 24.9 nM
C[C@@H]1CN(C2CN(C3=NC(=O)/C(=C/c4ccc5c(cnn5Cc5ccc(Cl)cc5C(F)(F)F)c4)S3)C2)C[C@H](C)O1 [Example 203, 5-({1-[4-Chloro-2-(trifluoromethyl)benzyl]-1H-indazol-5-yl}methylidene)-2-[3-(2,6-cis-dimethylmorpholin-4-yl)azetidin-1-yl]-1,3-thiazol-4(5H)-one] | 38.8 nM
CC(=O)N1CCN(C2=NC(=O)/C(=C/c3ccc4c(cnn4Cc4ccc(F)cc4C(F)(F)F)c3)S2)CC1 [Compound 5, 2-(4-Acetyl-piperazin-1-yl)-5-[1-(4-fluoro-2-trifluoromethyl-benzyl)-1H-indazol-5-ylmethylene]-thiazol-4-one] | 42 nM
CC(C)(C)N1CCN(C2=NC(=O)/C(=C/c3ccc4c(cnn4Cc4ccc(C(F)(F)F)cc4C(F)(F)F)c3)S2)C[C@@H]1CO [Example 207, 5-({1-[2,4-Bis(trifluoromethyl)benzyl]-1H-indazol-5-yl}methylidene)-2-[4-tert-butyl-3-(R)-(hydroxymethyl)piperazin-1-yl]-1,3-thiazol-4(5H)-one] | 38 nM
O=C1N=C(N2C[C@H](NC(=O)C3CC3)C[C@@H]2CO)S/C1=C\c1ccc2c(cnn2Cc2ccc(C(F)(F)F)cc2C(F)(F)F)c1 [Example 260, N-{(3R,5R)-1-[5-({1-[2,4-Bis(trifluoromethyl)benzyl]-1H-indazol-5-yl}methylidene)-4-oxo-4,5-dihydro-1,3-thiazol-2-yl]-5-(hydroxymethyl)pyrrolidin-3-yl}cyclopropanecarboxamide] | 290 nM
O=C1N=C(N2CCN(CCO)CC2)S/C1=C\c1ccc2c(cnn2Cc2ccc(F)cc2C(F)(F)F)c1 [Compound 4, 5-[1-(4-Fluoro-2-trifluoromethyl-benzyl)-1H-indazol-5-ylmethylene]-2-[4-(2-hydroxy-ethyl)-piperazin-1-yl]-thiazol-4-one] | 92 nM
CCOCCN1CCN(C2=NC(=O)/C(=C/c3ccc4c(cnn4Cc4ccc(Cl)cc4C(F)(F)F)c3)S2)CC1 [Example 81, 5-[1-(4-Chloro-2-trifluoromethyl-benzyl)-1H-indazol-5-ylmethylene]-2-[4-(2-ethoxy-ethyl)-piperazin-1-yl]-thiazol-4-one] | 68.8 nM
O=C1N=C(N2CCN(CC(F)(F)F)CC2)S/C1=C\c1ccc2c(cnn2Cc2ccc(Cl)cc2C(F)(F)F)c1 [Example 58, 5-[1-(4-Chloro-2-trifluoromethyl-benzyl)-1H-indazol-5-ylmethylene]-2-[4-(2,2,2-trifluoro-ethyl)-piperazin-1-yl]-thiazol-4-one] | 42 nM
O=C1N=C(N2CCO[C@@H](CO)C2)S/C1=C\c1ccc2c(cnn2Cc2ccc(O)cc2C(F)(F)F)c1 [Example 249, 2-[(2R)-2-(Hydroxymethyl)morpholin-4-yl]-5-({1-[4-hydroxy-2-(trifluoromethyl)benzyl]-1H-indazol-5-yl}methylidene)-1,3-thiazol-4(5H)-one] | 4 nM
CC(C)(O)c1ccc(Cn2ncc3cc(/C=C4\SC(N5CCN[C@@H](CO)C5)=NC4=O)ccc32)c(C(F)(F)F)c1 [Example 246, 5-({1-[4-(1-Hydroxy-1-methylethyl)-2-(trifluoromethyl)benzyl]-1H-indazol-5-yl}methylidene)-2-[3-(R)-(hydroxymethyl)piperazin-1-yl]-1,3-thiazol-4(5H)-one] | 230 nM
O=C1N=C(N2CCO[C@H](CO)C2)S/C1=C\c1ccc2c(c1)c(Cl)nn2Cc1ccc(Cl)cc1C(F)(F)F [Example 185, 5-[3-Chloro-1-(4-chloro-2-trifluoromethyl-benzyl)-1H-indazol-5-ylmethylene]-2-(2-(S)-hydroxymethyl-morpholin-4-yl)-thiazol-4-one] | 3 nM
